Data from US20080220080A1, “Multiparticulate Pharmaceutical form Comprising Pellets with a Substance Having a Modular Effect in Relation to Active Ingredient Release” (RÖHM GMBH, priority 2005, published 2008).
Entries after “also recorded” stand apart in the source; their conditions may differ.

Columns and labels:
[1] = active ingredient delivery in PhEur phosphate buffer of pH 6.8 in a USP dissolution tester (theophylline pellets); assay type: physicochemical; details: substance in pellet core under EUDRAGIT RS coating
[2] = in vitro activity of modulating substances in purified water and phosphate buffer pH 6.8; assay type: physicochemical; details: purified water vs phosphate buffer pH 6.8
Source text: In the human and animal gastrointestinal tract the concentration of ions may vary to a certain extent and thus may influence the activity of the modulating substances. For reproducible in-vivo results substances having a modulating effect, which are not or only a little influenced by varying ionic strength are preferred.

SMILES | effect of the modulating substance on the rate of active ingredient delivery [1] | in vitro activity of the modulating substance in purified water compared with phosphate buffer pH 6.8 (Pharm. Eur.) [2] | effect of the modulating substance on the rate of active ingredient delivery ([1]; listed as Na acetate) | effect of the modulating substance on the rate of active ingredient delivery ([1]; listed as NaCl) | effect of the modulating substance on the rate of active ingredient delivery ([1]; listed as Na succinate)
O=C([O-])CC(O)(CC(=O)[O-])C(=O)[O-].[Na+].[Na+].[Na+] [Na citrate] | decrease the rate of active ingredient delivery |  |  |  | 
O=C(O)CC(O)(CC(=O)O)C(=O)O [citric acid] | accelerating effect; also recorded: increase the rate of active ingredient delivery | almost the same activity |  |  | 
CC(=O)[O-].[Na+] [sodium acetate] | accelerating effect |  | increase the rate of active ingredient delivery |  | 
[Cl-].[Na+] [sodium chloride] | reducing effect | almost the same activity |  | decrease the rate of active ingredient delivery | 
O=C([O-])CCC(=O)[O-].[Na+].[Na+] [sodium succinate] | accelerating effect | almost the same activity |  |  | increase the rate of active ingredient delivery
